Laboratory results as given in patent publication US9266939B2, “Compositions comprising natriuretic peptides and methods of use thereof” (Alexion Pharmaceuticals, Inc., priority 2010, dated 2016).
Where two headings read alike, the source gives them in different places. Bridge positions count the residues as written; N and C are the ends. Ends that are not written are not given here. Peptide text beside a SMILES is read from it.

Key:
[1] = target: T1, neutral endopeptidase (NEP) (Homo sapiens, UniProt P08473); experiment: in vitro; conditions: isolated enzyme neprilysin, pH 7.5
NPR-B = target: T2, NPR-B (Homo sapiens, UniProt P20594); experiment: Whole cell guanylyl cyclase (cGMP) assay, NPR-B; type: cell-based; set-up: expressed in transfected cells; conditions: for Emax: read-out: % Efficacy
T2 sequence (P20594 23-1047): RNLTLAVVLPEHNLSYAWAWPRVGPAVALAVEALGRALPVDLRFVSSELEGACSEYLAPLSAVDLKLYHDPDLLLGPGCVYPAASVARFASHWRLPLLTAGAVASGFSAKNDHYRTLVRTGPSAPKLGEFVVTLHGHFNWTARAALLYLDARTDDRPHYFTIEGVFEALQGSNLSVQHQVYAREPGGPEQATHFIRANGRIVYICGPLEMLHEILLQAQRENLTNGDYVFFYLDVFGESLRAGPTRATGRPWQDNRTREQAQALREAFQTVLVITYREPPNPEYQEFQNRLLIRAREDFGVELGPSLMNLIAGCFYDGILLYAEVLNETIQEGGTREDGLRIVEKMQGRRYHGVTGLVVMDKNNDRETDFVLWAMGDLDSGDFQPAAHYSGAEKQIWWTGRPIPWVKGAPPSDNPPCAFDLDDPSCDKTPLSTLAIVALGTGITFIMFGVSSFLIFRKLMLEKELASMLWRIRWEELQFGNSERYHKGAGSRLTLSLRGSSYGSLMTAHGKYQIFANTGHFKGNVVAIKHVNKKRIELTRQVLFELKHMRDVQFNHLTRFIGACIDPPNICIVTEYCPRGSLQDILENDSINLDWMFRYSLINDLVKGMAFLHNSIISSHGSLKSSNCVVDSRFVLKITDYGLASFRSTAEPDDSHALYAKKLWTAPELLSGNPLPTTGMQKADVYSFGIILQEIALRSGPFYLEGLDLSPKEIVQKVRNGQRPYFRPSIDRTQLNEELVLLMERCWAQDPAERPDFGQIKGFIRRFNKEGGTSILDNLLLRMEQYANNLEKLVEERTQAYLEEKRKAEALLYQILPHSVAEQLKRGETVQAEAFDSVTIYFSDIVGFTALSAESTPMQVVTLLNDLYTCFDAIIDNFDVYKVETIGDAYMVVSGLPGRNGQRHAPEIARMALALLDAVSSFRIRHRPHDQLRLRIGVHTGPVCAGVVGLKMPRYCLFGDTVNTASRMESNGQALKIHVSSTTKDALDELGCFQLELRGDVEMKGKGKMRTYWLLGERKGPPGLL
Method: HEK293S cells in a semi-confluent 75 cm2 flask are transfected with 30 μg of plasmid DNA coding for the appropriate receptor, e.g., human NPR-B or NPR-A, using Lipofectamine-2000CD. Alternatively, a stable polyclonal HEK293 S cell line expressing either human NPR-B or NPR-A was used. 24 hours after transfection, cells are trypsinized and plated into 48-well plates at 1×10^5 cells/well. Guanylyl cyclase assay is carried out 24 hours post-plating. Cells are first incubated for 30 minutes at 37° C. with serum-free DMEM medium. Then, they are incubated in triplicate with or without increasing concentrations of reference or test proteins in serum-free DMEM supplemented with 1 mM IBMX and 0.5% BSA, at 37° C. for 30 minutes to one hour. CNP serves as a suitable reference for NPR-B, while ANP is a suitable reference for NPR-A. Finally, cells are washed with ice-cold PBS and solubilized in lysis buffer from Catchpoint cGMP kit (Molecular devices). Concentrations of cGMP in lysate are determined using the Catchpoint cGMP kit. Dose-response curves are analysed with GraphPad Prism 5 software using non-linear regression with four-parameter logistic equation.

[2] = target: T1, neutral endopeptidase (NEP)

T1 sequence (P08473 whole entry): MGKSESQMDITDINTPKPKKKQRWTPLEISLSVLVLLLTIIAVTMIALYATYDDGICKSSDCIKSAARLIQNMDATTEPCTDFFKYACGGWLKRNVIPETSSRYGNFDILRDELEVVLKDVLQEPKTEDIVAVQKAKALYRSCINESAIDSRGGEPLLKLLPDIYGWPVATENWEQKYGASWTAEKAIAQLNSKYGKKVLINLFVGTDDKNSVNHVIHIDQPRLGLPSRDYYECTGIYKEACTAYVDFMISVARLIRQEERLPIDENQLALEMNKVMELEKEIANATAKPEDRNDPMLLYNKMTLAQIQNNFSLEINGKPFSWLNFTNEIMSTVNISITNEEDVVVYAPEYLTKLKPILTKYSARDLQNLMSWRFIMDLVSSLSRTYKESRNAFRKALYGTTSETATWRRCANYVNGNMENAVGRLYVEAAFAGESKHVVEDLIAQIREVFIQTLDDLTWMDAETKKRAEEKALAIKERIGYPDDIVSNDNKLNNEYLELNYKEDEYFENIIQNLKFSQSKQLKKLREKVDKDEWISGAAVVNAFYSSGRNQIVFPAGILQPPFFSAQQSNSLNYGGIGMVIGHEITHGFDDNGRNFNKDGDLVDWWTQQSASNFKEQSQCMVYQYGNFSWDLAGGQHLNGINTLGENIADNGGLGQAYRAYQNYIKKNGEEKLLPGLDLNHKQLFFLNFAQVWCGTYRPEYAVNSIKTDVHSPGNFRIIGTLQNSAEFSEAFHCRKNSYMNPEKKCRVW

Compound | remaining at 4 h [1] [%] | EC50 Ratio versus CNP22 (NPR-B) | Rescue Ratio versus CNP22 (NPR-B) | EC50 (NPR-B; EC50) [nM] | EC50 (NPR-B; EC50 on NPR-B) [nM] | Rescue range (NPR-B; agonist concentration producing cGMP as 2.4 nM (lower) and 14 nM (high) CNP22) [nM] | Rescue Ratio Average (NPR-B; peptides, NPR-B whole cell cGMP assay) | Emax (NPR-B) [%] | % of control after 240 min [2] [%] | Resist NEP degradation (No/Yes) [2] | Rescue Ratio Average (NPR-B) | Rescue range (NPR-B) [nM] | potency compared with the other tested peptides (NPR-B)
CC[C@H](C)[C@@H]1NC(=O)[C@H](CCCNC(=N)N)NC(=O)[C@H](CC(=O)O)NC(=O)[C@H](CC(C)C)NC(=O)[C@H](CCCCN)NC(=O)[C@H](CC(C)C)NC(=O)CNC(=O)[C@H](Cc2ccccc2)NC(=O)[C@@H](NC(=O)CNC(=O)[C@H](CCCCN)NC(=O)[C@H](CO)NC(=O)[C@H](CC(C)C)NC(=O)CN)CSSC[C@@H](C(=O)O)NC(=O)CNC(=O)[C@H](CC(C)C)NC(=O)CNC(=O)[C@H](CO)NC(=O)[C@H](CCSC)NC(=O)[C@H](CO)NC(=O)CNC1=O [CNP22, reference compound] | 0 | 1.00 | 1 | 14.7 ± 3.4 | 4.87 | 2.4 to 14 | 1 | 100 | 0 | No | – | – | –
GLSKGCFGLKLDRIGSMSGLGCGGGGSGGGGSGGGGDDDDDD (disulfide 6-22) [CNP-14AAlinker-D6 [C4]] | 75 | 146 | 375-714 | 2140 | – | – | – | 156 | 75 | Yes | 545 | 900 to 10000 | –
CC[C@H](C)[C@@H]1NC(=O)[C@H](CCCNC(=N)N)NC(=O)[C@H](CC(=O)O)NC(=O)[C@H](CC(C)C)NC(=O)[C@H](CCCCN)NC(=O)[C@H](CC(C)C)NC(=O)CNC(=O)[C@H](Cc2ccccc2)NC(=O)[C@@H](NC(=O)CNC(=O)[C@H](CCCCN)NC(=O)[C@H](CO)NC(=O)[C@H](CC(C)C)NC(=O)CN)CSSC[C@@H](C(=O)N2CCC[C@H]2C(=O)N[C@@H](CO)C(=O)N[C@@H](CO)C(=O)N[C@@H](C)C(=O)N[C@@H](C)C(=O)N[C@@H](CCCNC(=N)N)C(=O)N[C@@H](CCCNC(=N)N)C(=O)O)NC(=O)CNC(=O)[C@H](CC(C)C)NC(=O)CNC(=O)[C@H](CO)NC(=O)[C@H](CCSC)NC(=O)[C@H](CO)NC(=O)CNC1=O [CDNP29-S3A4A5R6 [C14]] | 99 | – | – | – | – | – | – | – | – | – | – | – | –
EEEEEESGGGGSGGGKGANQQGLSKGCFGLKLDRIGSMSGLGC (disulfide 27-43) [C9(E6) [BC9]] | 98 | 79.3 | 76-97 | 1170 | – | – | – | 95 | – | Yes | 87 | 183 to 1358 | –
EEEEEESGGGGSGGGQGANKKGLSKGCFGLKLDRIGSMSGLGC (disulfide 27-43) [C8(E6) [BC8]] | 103 | 48.9 | 48-56 | 719 | – | – | – | 97 | – | Yes | 52 | 116 to 779 | –
DDDDDDGGGGSGGGGSGGGGGLSKGCFGLKLDRIGSMSGLGC (disulfide 26-42) [D6-14AAlinker-CNP [C3]] | 101 | – | – | – | – | – | – | – | – | – | – | – | –
EEEEEESGGGGSGGGKGANQKGLSKGCFGLKLDRIGSMSGLGC (disulfide 27-43) [C7(E6) [BC7]] | 98 | 68.6 | 74-85 | 1010 | – | – | – | 95 | – | Yes | 80 | 177 to 1193 | –
EEEEEEHKLRGQEHPNARKYKGANKKGLSKGCFGLKLDRIGSMSGLGC (disulfide 32-48) [KB1(E6)] | 107 | 5.75 | 5.6-5.6 | 84.5 | – | – | – | 109 | – | Yes | 5.6 | 13.4 to 78.1 | more potent than the other tested peptides
EEEEEEHGPQGQEHPNARKYKGANKKGLSKGCFGLKLDRIGSMSGLGC (disulfide 32-48) [KA1(E6)] | 108 | 9.79 | – | 144 | – | – | – | 108 | – | Yes | 8.2 | 21.6 to 102 | more potent than the other tested peptides
EEEEEESGGGGSGGGQGANKQGLSKGCFGLKLDRIGSMSGLGC (disulfide 27-43) [C11(E6) [BC11]] | 102 | 60.4 | – | 888 | – | – | – | 95 | – | Yes | 120 | 289 to 1662 | –
CC[C@H](C)[C@@H]1NC(=O)[C@H](CCCNC(=N)N)NC(=O)[C@H](CC(=O)O)NC(=O)[C@H](CC(C)C)NC(=O)[C@H](CCCCN)NC(=O)[C@H](CC(C)C)NC(=O)CNC(=O)[C@H](Cc2ccccc2)NC(=O)[C@@H](NC(=O)CNC(=O)[C@H](CCCCN)NC(=O)[C@H](CO)NC(=O)[C@H](CC(C)C)NC(=O)CNC(=O)CNC(=O)[C@H](CO)NC(=O)[C@H](CO)NC(=O)[C@H](C)NC(=O)[C@H](C)NC(=O)[C@@H]2CCCN2C(=O)[C@H](CCCNC(=N)N)NC(=O)[C@@H]2CCCN2C(=O)[C@H](CC(N)=O)NC(=O)[C@H](C)NC(=O)[C@@H]2CCCN2C(=O)[C@H](CO)NC(=O)[C@@H](NC(=O)[C@H](CO)NC(=O)[C@H](C)N)[C@@H](C)O)CSSC[C@@H](C(=O)O)NC(=O)CNC(=O)[C@H](CC(C)C)NC(=O)CNC(=O)[C@H](CO)NC(=O)[C@H](CCSC)NC(=O)[C@H](CO)NC(=O)CNC1=O [CNP-Nterm2 [C5]] (HELM PEPTIDE1{A.S.T.S.P.A.N.P.R.P.A.A.S.S.G.G.L.S.K.G.C.F.G.L.K.L.D.R.I.G.S.M.S.G.L.G.C}$PEPTIDE1,PEPTIDE1,21:R3-37:R3$$$V2.0) | 106 | – | – | – | – | – | – | – | – | – | – | – | –
EEEEEESGGGGSGGGGSGGGGGLSKGCFGLKLDRIGSMSGLGC (disulfide 27-43) [C1(E6) [BC1]] | 99 | 118 | 120-124 | 1740 | – | – | – | 97 | – | Yes | 122 | 289 to 1733 | –
CC[C@H](C)[C@@H]1NC(=O)[C@H](CCCNC(=N)N)NC(=O)[C@H](CC(=O)O)NC(=O)[C@H](CC(C)C)NC(=O)[C@H](CCCCN)NC(=O)[C@H](CC(C)C)NC(=O)CNC(=O)[C@H](Cc2ccccc2)NC(=O)[C@@H](NC(=O)CNC(=O)[C@H](CCCCN)NC(=O)[C@H](CO)NC(=O)[C@H](CC(C)C)NC(=O)CN)CSSC[C@@H](C(=O)N2CCC[C@H]2C(=O)N[C@@H](CO)C(=O)N[C@@H](CO)C(=O)N[C@@H](C)C(=O)N[C@@H](C)C(=O)N[C@@H](CCCNC(=N)N)C(=O)N[C@@H](CCCNC(=N)N)C(=O)N2CCC[C@H]2C(=O)N[C@@H](CC(N)=O)C(=O)N[C@@H](C)C(=O)N2CCC[C@H]2C(=O)N[C@@H](CO)C(=O)N[C@H](C(=O)N[C@@H](CO)C(=O)N[C@@H](C)C(=O)O)[C@@H](C)O)NC(=O)CNC(=O)[C@H](CC(C)C)NC(=O)CNC(=O)[C@H](CO)NC(=O)[C@H](CCSC)NC(=O)[C@H](CO)NC(=O)CNC1=O [CDNP-S3A4A5R6 [C13]] (HELM PEPTIDE1{G.L.S.K.G.C.F.G.L.K.L.D.R.I.G.S.M.S.G.L.G.C.P.S.S.A.A.R.R.P.N.A.P.S.T.S.A}$PEPTIDE1,PEPTIDE1,6:R3-22:R3$$$V2.0) | 100 | – | – | – | – | – | – | – | – | – | – | – | –
